The text below walks through data of patent publication US10954201B2, “Two-electron donating phenothiazines and use thereof” (University of Kentucky Research Foundation, priority 2016, dated 2021).

Series [1] in a line: Solubility in electrolyte formulations. The class given is physicochemical. Conditions: for solubility compared to the N-ethyl derivative: while retaining stable redox chemistry. The source says:
Additionally, in some embodiments, the N-substituted phenothiazine compounds described herein provide increased solubility in electrolyte formulations as compared to existing compounds, such as 2,5-di-tert-butyl-1,4-bis(2-methoxyethoxy)benzene (DBBB). In one embodiment, the glyme substituents provide increased solubility in electrolyte formulations as compared to other derivatives. […] In another embodiment, this solubility in organic solvents permits the use of renewable earth-abundant elements.
In some embodiments, the N-substituted phenothiazine compounds described herein provide a multi-electron donor including high stability and solubility in catholyte formulations. In another embodiment, the catholyte material provides a multi-electron donor that retains high chemical stability when charged. […] For example, when formulated at its solubility limit, diglyme-dimethoxyphenothiazine may provide approximately 5 times the volumetric energy of DBBB, which has an energy density of 10 Ah/L when formulated as a catholyte, and is limited by its solubility (0.4M) and redox chemistry, acting as a single electron donor.

Series [2] can be described thus: Cyclic voltammetry, 10 mM analyte in 0.5M LiPF6 in PC (FIG. 1, Table 1). The format is physicochemical. Conditions: scan rate 100 mV/s. As to the method: FIG. 1 is a graph showing cyclic voltammograms of DMeOEPT, DMeOMEPT, and DMeOMEEPT, performed with 10 mM analyte in 0.5M LiPF6 in PC at a scan rate of 100 mV/s.
For series [3] the following is noted: DBBB formulated as a catholyte; cited from earlier work.
A short description of series [4]: Oxidation potentials vs. ferrocenium/ferrocene in 0.5M TEATFSI/acetonitrile. The format is physicochemical. The source says: With regard to Compound IV, oxidation potentials are 0.035 V and 0.625 V vs. ferrocenium/ferrocene in 0.5M TEATFSI/acetonitrile.

≈ marks a conversion by molar mass, not a printed value. Where two headings read alike, the source gives them in different places.

`COCCN1c2ccc(OC)cc2Sc2cc(OC)ccc21` [II, 3,7-dimethoxy-N-methoxyethyl-phenothiazine] came in with a melting point of 108 to 110 °C. Moreover, the “solubility compared to the N-ethyl derivative” value in series [1] is given as “higher solubility”. In series [2], the “1st Eox vs. Li (half-wave first oxidation potential)” value (from here on “1st Eox vs. Li”) is given as 3.42 V and the “2nd Eox vs. Li (half-wave second oxidation potential)” value (shortened to “2nd Eox vs. Li”) is 3.96 V.
Turning to `COCCOc1cc(C(C)(C)C)c(OCCOC)cc1C(C)(C)C` [DBBB, 2,5-di-tert-butyl-1,4-bis(2-methoxyethoxy)benzene], in series [3], the solubility was 400 mM (≈ 135 mg/mL).
Take `CCN1c2ccc(OCCOCCOC)cc2Sc2cc(OCCOCCOC)ccc21` [Compound IV]: in series [4], the “oxidation potential (first) vs. ferrocenium/ferrocene” value came out at 0.035 V and the “oxidation potential (second) vs. ferrocenium/ferrocene” value is listed as 0.625 V.
Regarding `CCN1c2ccc(OC)cc2Sc2cc(OC)ccc21` [Compound I, 3,7-dimethoxy-N-ethyl-phenothiazine], the melting point lay in the range of 115 to 116 °C. Moreover, in series [1], the solubility result was “about 100 mM”. In addition, in series [2], the “1st Eox vs. Li” value is on record as 3.38 V and the “2nd Eox vs. Li” value came out at 3.94 V.
In the case of `COCCOCCN1c2ccc(OC)cc2Sc2cc(OC)ccc21` [III, 3,7-dimethoxy-N-((2-methoxy)ethoxy)ethyl-phenothiazine], the “solubility compared to the N-ethyl derivative” value in series [1] is given as “higher solubility”. Further, in series [2], the “1st Eox vs. Li” value worked out at 3.41 V and the “2nd Eox vs. Li” value came to 3.98 V.
